Source: patent publication US12485114B2, “Materials and methods useful to induce cancer cell death via methuosis or autophagy or a combination thereof” (The University of Toledo, priority 2017, dated 2025)

Experiments:
JNK3 = target: T1, JNK3 (Homo sapiens, UniProt P53779); assay: Kinome screening (DiscoverX) against 468 kinases; format: binding
T1 construct: purchased DiscoverX (KINOMEscan)
Protocol: (§1) FIG. 49A: Image showing the effect of Image was generated using TREEspot™ Software Tool and reprinted with permission from KINOMEscan®, a division of DiscoveRx Corporation, @ DISCOVERX CORPORATION 2010. Selectivity Score or S-score is a quantitative measure of compound selectivity. It was calculated by dividing the number of kinases that BAPT-27 bind to by the total number of distinct kinases tested, excluding mutant variants.

FLT3(ITD, D835V) = assay: Kinome screening (DiscoverX) against 468 kinases; format: binding
Protocol: as §1

[1] = target: T2, phosphoinositide 5-kinase (PIKfyve) (Homo sapiens, UniProt Q9Y2I7); assay: Kinome screening (DiscoverX) against 468 kinases; format: binding
T2 construct: purchased DiscoverX (KINOMEscan)
T2 sequence (Q9Y2I7 whole entry): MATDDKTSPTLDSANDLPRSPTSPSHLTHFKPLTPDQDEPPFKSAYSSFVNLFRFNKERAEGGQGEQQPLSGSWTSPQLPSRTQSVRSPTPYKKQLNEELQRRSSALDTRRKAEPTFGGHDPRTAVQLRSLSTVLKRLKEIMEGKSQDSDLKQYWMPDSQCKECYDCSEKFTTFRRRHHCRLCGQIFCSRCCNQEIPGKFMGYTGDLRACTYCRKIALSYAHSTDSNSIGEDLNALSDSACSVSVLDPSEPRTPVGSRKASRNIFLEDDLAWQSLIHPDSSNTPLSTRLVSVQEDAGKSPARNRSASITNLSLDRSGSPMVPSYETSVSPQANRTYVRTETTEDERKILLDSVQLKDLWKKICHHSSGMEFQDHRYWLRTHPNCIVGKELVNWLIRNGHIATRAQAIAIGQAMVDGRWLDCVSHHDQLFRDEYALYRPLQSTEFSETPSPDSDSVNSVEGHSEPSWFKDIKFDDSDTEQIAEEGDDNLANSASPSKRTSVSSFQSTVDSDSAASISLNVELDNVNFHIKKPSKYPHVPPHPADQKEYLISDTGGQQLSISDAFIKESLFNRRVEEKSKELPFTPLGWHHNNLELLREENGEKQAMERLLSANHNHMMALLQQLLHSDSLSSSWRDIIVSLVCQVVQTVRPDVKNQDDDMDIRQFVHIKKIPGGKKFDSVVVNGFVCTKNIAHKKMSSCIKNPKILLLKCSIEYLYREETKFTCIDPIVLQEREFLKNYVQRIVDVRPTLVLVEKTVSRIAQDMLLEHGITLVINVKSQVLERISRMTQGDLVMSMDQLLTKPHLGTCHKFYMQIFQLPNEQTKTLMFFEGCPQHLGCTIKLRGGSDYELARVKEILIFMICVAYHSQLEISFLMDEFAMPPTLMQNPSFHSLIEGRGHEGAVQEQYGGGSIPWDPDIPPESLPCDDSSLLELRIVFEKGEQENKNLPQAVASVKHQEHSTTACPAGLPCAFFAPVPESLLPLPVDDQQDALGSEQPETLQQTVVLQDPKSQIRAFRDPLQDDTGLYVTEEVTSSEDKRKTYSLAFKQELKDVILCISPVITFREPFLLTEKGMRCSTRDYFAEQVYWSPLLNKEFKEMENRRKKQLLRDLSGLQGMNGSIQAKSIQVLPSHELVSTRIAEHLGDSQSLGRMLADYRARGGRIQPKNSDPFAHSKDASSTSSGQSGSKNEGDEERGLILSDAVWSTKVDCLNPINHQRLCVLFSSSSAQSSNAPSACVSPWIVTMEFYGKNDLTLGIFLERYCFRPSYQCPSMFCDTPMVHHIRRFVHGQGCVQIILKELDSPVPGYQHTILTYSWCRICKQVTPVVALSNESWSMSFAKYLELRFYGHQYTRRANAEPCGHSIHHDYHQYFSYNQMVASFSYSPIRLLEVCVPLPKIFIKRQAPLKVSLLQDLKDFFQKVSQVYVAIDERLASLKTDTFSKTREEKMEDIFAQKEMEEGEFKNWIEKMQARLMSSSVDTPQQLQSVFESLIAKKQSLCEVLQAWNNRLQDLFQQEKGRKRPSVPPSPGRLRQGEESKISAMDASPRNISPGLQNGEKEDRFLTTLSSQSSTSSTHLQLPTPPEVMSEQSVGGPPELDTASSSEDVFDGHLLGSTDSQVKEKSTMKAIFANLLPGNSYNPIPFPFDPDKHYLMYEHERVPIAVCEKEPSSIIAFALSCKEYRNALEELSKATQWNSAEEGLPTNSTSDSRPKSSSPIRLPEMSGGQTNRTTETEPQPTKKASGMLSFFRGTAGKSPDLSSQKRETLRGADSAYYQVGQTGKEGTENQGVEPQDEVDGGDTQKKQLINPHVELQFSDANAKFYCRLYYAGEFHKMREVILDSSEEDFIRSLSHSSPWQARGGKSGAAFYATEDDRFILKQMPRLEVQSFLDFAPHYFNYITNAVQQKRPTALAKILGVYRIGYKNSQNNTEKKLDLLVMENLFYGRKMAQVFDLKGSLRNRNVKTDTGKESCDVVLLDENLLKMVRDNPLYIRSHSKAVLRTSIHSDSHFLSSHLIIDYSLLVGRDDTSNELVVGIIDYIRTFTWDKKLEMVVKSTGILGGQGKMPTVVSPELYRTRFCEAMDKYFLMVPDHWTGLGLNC
Protocol: as §1

JNK2 = target: T3, JNK2 (Homo sapiens, UniProt P45984); assay: Kinome screening (DiscoverX) against 468 kinases; format: binding
T3 construct: purchased DiscoverX (KINOMEscan)
T3 sequence (P45984 whole entry): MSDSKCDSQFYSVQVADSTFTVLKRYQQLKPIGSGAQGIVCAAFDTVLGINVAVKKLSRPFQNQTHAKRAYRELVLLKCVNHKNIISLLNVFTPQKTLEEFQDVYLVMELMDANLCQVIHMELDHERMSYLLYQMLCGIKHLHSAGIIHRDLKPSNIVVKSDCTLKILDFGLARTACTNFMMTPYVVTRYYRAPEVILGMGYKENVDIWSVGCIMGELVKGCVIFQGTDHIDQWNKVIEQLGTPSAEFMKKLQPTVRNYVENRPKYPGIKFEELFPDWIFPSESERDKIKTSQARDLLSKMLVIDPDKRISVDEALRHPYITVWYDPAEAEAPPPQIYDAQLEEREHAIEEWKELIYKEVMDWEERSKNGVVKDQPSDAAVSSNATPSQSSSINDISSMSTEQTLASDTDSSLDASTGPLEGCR
Protocol: as §1

[2] = tested on: HCT116, HCT116 Bax −/−, HCT116 Bak −/−, HCT116 Bax/Bak−/−; assay: Death in apoptosis resistant colon cancer cell lines; format: cell-based; conditions: cell lines missing pro-apoptotic genes Bax and Bak
Excerpt: (§2) The cells became sensitive to the cytotoxicity of mitoxantrone when combined with BAPT-27. Further, BAPT-27 induced death in apoptosis resistant cell lines including colon cancer cell lines that are missing important pro-apoptotic genes Bax and Bak using well established models (HCT116, HCT116 Bax −/−, HCT116 Bak −/−, HCT116 Bax/Bak−/−). Accordingly, BAPT-27 represents a family of compounds that induce cell death in sensitive and resistant cancers, as well as those cancers that are refractory to death by conventional apoptosis inducing anticancer agents.

cancer cells = assay: Loss of viability and non-apoptotic cell death assessment (nuclei, electron microscopy, annexin, z-VAD-fmk); format: cell-based
Protocol: Cells treated with BAPT-27 lose their viability within 72 h. […] Through electron microscopy there were clearly no signs of apoptosis (i.e., cell shrinkage, nuclear condensation, blebbing) seen.

macropinocytosis = assay: Lucifer yellow dye uptake (macropinocytosis); format: cell-based; conditions: 10 μM, 6 h treatment
Excerpt: BAPT-27 induced vacuoles that combine both methuosis and autophagy characteristics. […] The author mechanism involved in this non-conventional cell death mechanism is a special type of […] that has been termed methuosis. The treatment of cells by BAPT-27 caused the displacement of the cytoplasm by vacuoles derived from macropinosomes. At early time points, the vacuoles are small in size. The small vacuoles then increase in number, and then fuse with each other over time forming larger vacuoles that cover the whole cytoplasm. Eventually, this causes a disturbance of the cell membrane and burst of the cells, release of fluids, detachment of cell, and death. […] Accordingly, alteration in both autophagic and methuosis mechanisms are involved in the BAPT-27 cell death process.

HCT-116 cells = assay: 3D transmission electron tomography of lysosomes; format: cell-based
Excerpt: The 3D reconstruction was loaded into the Avizo 3D Visualization software to reveal lysosomal structure through volume rendering and segmentation. FIGS. 50B-50C show increased autophagic vesicles (yellow) and increased lysosomal cargo (green).
(FIG. 50A & FIG. 50B & FIG. 50C).

[3] = tested on: resistant colon cancer cell lines S1M180; assay: Reversal of multidrug resistance, combined with mitoxantrone; format: cell-based
Excerpt: as §2
(§3) (FIG. 46). NSCLC cells resistant to apoptosis are also sensitive to the activities of BAPT-27.

[4] = tested on: resistant lung cancer cell lines H460-MX20; assay: as above; format: cell-based
Excerpt: as §2, §3

HCT116 cells = assay: Electron microscopy of treated cells; format: cell-based
Protocol: The vacuoles are indicated by V in FIG. 31. The single membranes of the vacuoles are destroyed (indicated by arrows in FIG. 31), allowing small vacuoles to merge, forming bigger vacuoles.
The vacuoles are fluid filled with traces of membranes due to vacuoles fusion events. The nuclei are healthy with no signs of chromatin condensation and are unaffected at even a high concentration (30 μM). However, as the vacuoles coalesce and grow in size, the nuclei are pushed on the edges of the cells. The nuclei are indicated by white N, and the vacuoles are indicated by black arrows, in FIG. 32.
(FIG. 38). The ER is indicated by black arrows.

HCT-116 (colon cancer) = assay: Morphological assessment of vacuolization; format: cell-based
Excerpt: (§4) The methuophagy inducing activities of BAPT-27 were also prominent in different colon cancer cell lines with different genetic profiles. […] (FIG. 42). However, the vacuoles formation was not prominent in normal epithelial colon cells (CRL-1459). (FIG. 42).

[5] = tested on: HT29 colon cancer cell line; assay: Morphological assessment of vacuolization; format: cell-based
Excerpt: as §4

[6] = tested on: HCT15 colon cancer cell line; assay: Morphological assessment of vacuolization; format: cell-based
Excerpt: as §4

[7] = cells became sensitive to mitoxantrone in combination

T1 sequence (P53779 whole entry): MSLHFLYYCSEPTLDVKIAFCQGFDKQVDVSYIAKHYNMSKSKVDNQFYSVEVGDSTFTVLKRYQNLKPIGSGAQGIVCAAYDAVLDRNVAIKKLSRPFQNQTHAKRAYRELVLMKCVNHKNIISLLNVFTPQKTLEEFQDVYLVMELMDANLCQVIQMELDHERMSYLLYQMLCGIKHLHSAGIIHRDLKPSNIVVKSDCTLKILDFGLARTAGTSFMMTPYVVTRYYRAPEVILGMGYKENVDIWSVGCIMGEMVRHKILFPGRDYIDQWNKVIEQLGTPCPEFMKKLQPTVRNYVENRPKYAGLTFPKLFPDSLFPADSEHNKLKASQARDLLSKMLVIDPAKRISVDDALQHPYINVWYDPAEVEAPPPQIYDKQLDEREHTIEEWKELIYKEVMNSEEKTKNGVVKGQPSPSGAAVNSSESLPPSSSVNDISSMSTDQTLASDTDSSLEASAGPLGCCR

SMILES: Sc1nnc(-c2ccncc2)n1/N=C/c1c[nH]c2ccccc12 [BAPT-27, 4-(((1H-Indol-3-Yl)Methylene)Amino)-5-(Pyridin-4-Yl)-4H-1,2,4-Triazole-3-Thiol]
- inhibitory potency (JNK3): shows inhibitory potency
- inhibitory potency (FLT3(ITD, D835V)): shows inhibitory potency
- inhibitory potency [1]: shows inhibitory potency
- inhibitory potency (JNK2): shows inhibitory potency
- cell death in apoptosis resistant cell lines [2]: induced death
- alteration in the intrinsic apoptotic pathways (proapoptotic and antiapoptotic proteins) (cancer cells): no alteration
- annexin fluorescence (cancer cells): not changed
- apoptotic changes of nuclei (chromatin condensation or DNA fragmentation) (cancer cells): no apoptotic changes
- protection from death by pan-caspase inhibitor z-VAD-fmk (cancer cells): did not protect the cells from death
- time to loss of viability (cancer cells; cells treated with BAPT-27): ≤ 72 h
- cells observed to have died through apoptosis (cancer cells; electron microscopy, very high concentration): one in 100 cells
- block of vacuoles formation by z-VAD (cancer cells; z-VAD 100 μM, BAPT-27 10 μM, 24 h and 72 hr): does not block
- Lucifer yellow dye in formed vacuoles (macropinocytosis): Extensive accumulation
- autophagic vesicles and lysosomal cargo (HCT-116 cells): increased autophagic vesicles and increased lysosomal cargo
- lysosomal size (HCT-116 cells): significant increase in lysosomal size
- delivery and sensitivity of doxorubicin and mitoxantrone [3]: increase the delivery and enhanced sensitivity
- reversal of multidrug resistance [3, 7]: reversed multidrug resistance
- delivery and sensitivity of doxorubicin and mitoxantrone [4]: increase the delivery and enhanced sensitivity
- reversal of multidrug resistance [4, 7]: reversed multidrug resistance
- formation of single membrane vacuoles (electron microscopy) (HCT116 cells; 10 μM): extensive formation of single membrane vacuoles
- state of nuclei (electron microscopy) (HCT116 cells; high concentration (30 μM)): unaffected
- state of endoplasmic reticulum (electron microscopy) (HCT116 cells; highest concentration 100 μM): normal and not stressed
- vacuolization (HCT-116 (colon cancer)): extensive vacuoles formation
- vacuolization [5]: extensive vacuoles formation
- vacuolization [6]: extensive vacuoles formation
